From ChEMBL document CHEMBL2203093, “EC144 is a potent inhibitor of the heat shock protein 90” (J Med Chem, 2012)

What was measured:
[1] = Tmax in CD-1 mouse at 25 mg/kg, po; type: ADME, organism-based; parameters: dose 25 mg/kg, route oral; conditions: in vivo
[2] = Apparent permeability from apical to basolateral side of human Caco2 cells; type: ADME, cell-based; conditions: Caco-2
[3] = AUC (infinity) in DBA1 mouse brain at 5 mg/kg, po; type: ADME, organism-based; parameters: dose 5 mg/kg, route oral, time infinity
[4] = Cmax in DBA1 mouse lymph nodes at 5 mg/kg, po; type: ADME, organism-based, Lymph node; parameters: dose 5 mg/kg, route oral
[5] = system: Serum; assay: Drug uptake in human NCI-N87 cell xenografted mouse serum at 6 to 12 mg/kg, po administered as a single dose at 6 to 24 hrs; type: ADME, organism-based; parameters: route oral; conditions: in vivo
[6] = Tmax in DBA1 mouse plasma at 5 mg/kg, po; type: ADME, organism-based; parameters: dose 5 mg/kg, route oral
[7] = Cmax in DBA1 mouse spleen at 5 mg/kg, po; type: ADME, organism-based; parameters: dose 5 mg/kg, route oral
[8] = Half life in DBA1 mouse plasma at 5 mg/kg, po; type: ADME, organism-based; parameters: dose 5 mg/kg, route oral
[9] = system: NCI-N87; assay: Drug uptake in human NCI-N87 cells xenografted in mouse at 6 to 12 mg/kg, po administered as a single dose at 6 to 24 hrs; type: ADME, organism-based; parameters: route oral; conditions: in vivo
[10] = system: Spleen; assay: Drug uptake in human NCI-N87 cell xenografted mouse spleen at 6 to 12 mg/kg, po administered as a single dose at 6 to 24 hrs; type: ADME, organism-based; parameters: route oral; conditions: in vivo
[11] = AUC (infinity) in DBA1 mouse plasma at 5 mg/kg, po; type: ADME, organism-based; parameters: dose 5 mg/kg, route oral, time infinity
[12] = Tmax in DBA1 mouse lymph nodes at 5 mg/kg, po; type: ADME, organism-based, Lymph node; parameters: dose 5 mg/kg, route oral
[13] = Cmax in DBA1 mouse brain at 5 mg/kg, po; type: ADME, organism-based; parameters: dose 5 mg/kg, route oral
[14] = Initial Cmax in CD-1 mouse at 25 mg/kg, po; type: ADME, organism-based; parameters: dose 25 mg/kg, route oral; conditions: in vivo
[15] = Half life in DBA1 mouse lymph nodes at 5 mg/kg, po; type: ADME, organism-based, Lymph node; parameters: dose 5 mg/kg, route oral
[16] = Tmax in DBA1 mouse brain at 5 mg/kg, po; type: ADME, organism-based; parameters: dose 5 mg/kg, route oral
[17] = system: Brain; assay: Drug uptake in human NCI-N87 cell xenografted mouse brain at 6 to 12 mg/kg, po administered as a single dose at 6 to 24 hrs; type: ADME, organism-based; parameters: route oral; conditions: in vivo
[18] = AUC (infinity) in DBA1 mouse spleen at 5 mg/kg, po; type: ADME, organism-based; parameters: dose 5 mg/kg, route oral, time infinity
[19] = Toxicity in po dosed mouse administered as a single dose; type: organism-based; conditions: in vivo
[20] = Cmax in DBA1 mouse plasma at 5 mg/kg, po; type: ADME, organism-based; parameters: dose 5 mg/kg, route oral
[21] = Half life in DBA1 mouse spleen at 5 mg/kg, po; type: ADME, organism-based; parameters: dose 5 mg/kg, route oral
[22] = system: Mus musculus; assay: Dose normalized AUC in CD-1 mouse at 25 mg/kg, po; type: ADME, organism-based; parameters: dose 25 mg/kg, route oral; conditions: in vivo
[23] = Intrinsic clearance in rat liver microsomes; type: ADME, Microsome; conditions: read-out: CLH
[24] = Toxicity in po dosed human N87 cell xenografted athymic mouse administered as qd for 5 days per week for 4 weeks; type: organism-based, NCI-N87; conditions: in vivo
[25] = Half life in CD-1 mouse at 25 mg/kg, po; type: ADME, organism-based; parameters: dose 25 mg/kg, route oral; conditions: in vivo
[26] = Intrinsic clearance in mouse liver microsomes; type: ADME, Microsome; conditions: read-out: CLH
[27] = Intrinsic clearance in human liver microsomes; type: ADME, Microsome; conditions: read-out: CLH
[28] = AUC in CD-1 mouse at 25 mg/kg, po; type: ADME, organism-based; parameters: dose 25 mg/kg, route oral; conditions: plasma
[29] = AUC (infinity) in DBA1 mouse lymph nodes at 5 mg/kg, po; type: ADME, organism-based, Lymph node; parameters: time infinity, dose 5 mg/kg, route oral
[30] = Half life in DBA1 mouse brain at 5 mg/kg, po; type: ADME, organism-based; parameters: dose 5 mg/kg, route oral
[31] = Tmax in CD-1 mouse at 100 mg/kg, po; type: ADME, organism-based; parameters: dose 100 mg/kg, route oral; conditions: in vivo
[32] = Initial Cmax in CD-1 mouse at 100 mg/kg, po; type: ADME, organism-based; parameters: dose 100 mg/kg, route oral; conditions: in vivo
[33] = system: Mus musculus; assay: Dose normalized AUC in CD-1 mouse at 100 mg/kg, po; type: ADME, organism-based; parameters: dose 100 mg/kg, route oral; conditions: in vivo
[34] = AUC in CD-1 mouse at 5 mg/kg, iv; type: ADME, organism-based; parameters: dose 5 mg/kg, route intravenous; conditions: plasma
[35] = system: Mus musculus; assay: Dose normalized AUC in CD-1 mouse at 5 mg/kg, iv; type: ADME, organism-based; parameters: dose 5 mg/kg, route intravenous; conditions: in vivo
[36] = Initial Cmax in CD-1 mouse at 5 mg/kg, iv; type: ADME, organism-based; parameters: dose 5 mg/kg, route intravenous; conditions: in vivo
[37] = Half life in CD-1 mouse at 5 mg/kg, iv; type: ADME, organism-based; parameters: dose 5 mg/kg, route intravenous; conditions: in vivo

## COc1c(C)cnc(Cn2cc(C#CCC(C)(C)O)c3c(Cl)nc(N)nc32)c1C
[1]
  Tmax: 0.5 h
[2]
  Papp A→B: 34.7 ×10⁻⁶ cm/s
[3]
  AUC(0-inf): 4710 ng·h/mL
[4]
  Cmax: 2140 ng/mL
[5]
  Drug uptake: Active
[6]
  Tmax: 4.98 min
[7]
  Cmax: 1890 ng/mL
[8]
  half-life: 1.2 h
[9]
  Drug uptake: Active
[10]
  Drug uptake: Active
[11]
  AUC(0-inf): 2120 ng·h/mL
[12]
  Tmax: 1 h
[13]
  Cmax: 1450 ng/mL
[14]
  Cmax: 1560 ng/mL
[15]
  half-life: 1.6 h
[16]
  Tmax: 0.5 h
[17]
  Drug uptake: Active
[18]
  AUC(0-inf): 8160 ng·h/mL
[19]
  MTD: 30 mg/kg
[20]
  Cmax: 835 ng/mL
[21]
  half-life: 2 h
[22]
  AUC/dose: 177 ng·h/mL/mg/kg
[23]
  CLint scaled: 276 mL/min/kg
[24]
  MTD at 4 weeks: 10 mg/kg
[25]
  half-life: 1.5 h
[26]
  CLint scaled: 727 mL/min/kg
[27]
  CLint scaled: 119 mL/min/kg
[28]
  AUC: 4420 ng·h/mL
[29]
  AUC(0-inf): 5190 ng·h/mL
[30]
  half-life: 2.1 h

## COc1c(C)cnc(Cn2cnc3c(Cl)nc(N)nc32)c1C [BIIB021]
[2]
  Papp A→B: 20 ×10⁻⁶ cm/s
[31]
  Tmax: 4.98 min
[32]
  Cmax: 10000 ng/mL
[33]
  AUC/dose: 48 ng·h/mL/mg/kg

## CCNC(=O)c1noc(-c2cc(C(C)C)c(O)cc2O)c1-c1ccc(CN2CCOCC2)cc1 [LUMINESPIB]
[2]
  Papp A→B: 1.9 ×10⁻⁶ cm/s
[34]
  AUC: 2410 ng·h/mL
[35]
  AUC/dose: 481 ng·h/mL/mg/kg
[23]
  CLint scaled: 219 mL/min/kg
[27]
  CLint scaled: 39 mL/min/kg
[36]
  Cmax: 2180 ng/mL
[37]
  half-life: 6.6 h

## CC1(C)CC(=O)c2c(C(F)(F)F)nn(-c3ccc(C(N)=O)c(N[C@H]4CC[C@H](O)CC4)c3)c2C1 [SNX-2112]
[1]
  Tmax: 1 h
[2]
  Papp A→B: 1.1 ×10⁻⁶ cm/s
[14]
  Cmax: 1720 ng/mL
[22]
  AUC/dose: 341 ng·h/mL/mg/kg
[23]
  CLint scaled: 54 mL/min/kg
[25]
  half-life: 2.9 h
[26]
  CLint scaled: 301 mL/min/kg
[27]
  CLint scaled: 54 mL/min/kg
[28]
  AUC: 8520 ng·h/mL

## C=CCNC1=C2C[C@@H](C)C[C@H](OC)[C@H](O)[C@@H](C)/C=C(\C)[C@H](OC(N)=O)[C@@H](OC)/C=C\C=C(/C)C(=O)NC(=CC1=O)C2=O [TANESPIMYCIN]
[19]
  MTD: 60 mg/kg
